From patent publication US8624027B2, “Combination therapy for treating cancer and diagnostic assays for use therein” (AbbVie Inc., priority 2005, dated 2014) come the findings set out here.

Data set [1] is described as follows: Pharmacokinetic evaluation in rat. The data set is classed as in vivo. The note with it: male, Sprague-Dawley, plasma, single 5 mg/kg oral dose, Table 1, read-out: Pharmacokinetic area under the plasma concentration Curve (rat) AUC0-∞. In a few lines: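 Male Sprague-Dawley rats (n=3/group) received a single 2 mg/kg IV (jugular slow bolus) or 5 mg/kg oral gavage dose in 10% DMSO/PEG-400; tail-vein plasma sampled to 24 h. Acetonitrile-precipitated plasma quantified by LC-MS/MS (LOQ 0.01 μg/mL); AUC0-∞ by linear trapezoidal rule plus Ct/β extrapolation.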

For data set [2], the system named is NCI-H146 human small cell lung carcinoma cells. The data set is described as follows: Cellular efficacy in human tumor cell line (MTS viability assay). The note with it: NCI-H146; 10% human serum, 48 hours; Table 1; read-out: NCI-H146 Cellular Efficacy EC50. The data set is classed as cell-based. In a few lines: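 Cells plated at 50,000/well in medium with 10% human serum in place of FBS. Treated with 2-fold serial dilutions from 10 μM to 0.020 μM, in duplicate, at least 3 separate runs. Viable cells measured by MTS after 48 h of compound exposure.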
A general note: Formazan colour is commonly taken as a measure of viable cells.

For `CC1(C)CCC(c2ccc(Cl)cc2)=C(CN2CCN(c3ccc(C(=O)NS(=O)(=O)c4ccc(N[C@H](CCN5CCOCC5)CSc5ccccc5)c(S(=O)(=O)C(F)(F)F)c4)cc3)CC2)C1` [Example 1, N-(4-(4-((2-(4-chlorophenyl)-5,5-dimethyl-1-cyclohex-1-en-1-yl)methyl)piperazin-1-yl)benzoyl)-4-(((1R)-3-(morpholin-4-yl)-1-((phenylsulfanyl)methyl)propyl)amino)-3-((trifluoromethyl)sulfonyl)benzenesulfonamide], in data set [1], the AUC(0-inf) turned out to be 5.01 µM·h. For the same compound, in data set [2], the EC50 is 89.1 nM.

By EC50 is commonly meant the concentration needed to bring the measured effect to its halfway point.
